Experimental data: patent US10156521B2, “Red fluorescent aldehyde dehydrogenase (ALDH) substrate” (THE JOHNS HOPKINS UNIVERSITY, priority 2013, dated 2018)

Assay: Excitation and emission profiles by spectrofluorophotometer
Assay type: physicochemical
Conditions: 100% ethanol
Protocol: FIGS. 2a-2c show the excitation and emission profiles of candidate ALDH substrates. (a) AldeRed 493 aldehyde diethyl acetal, (b) AldeRed 588 aldehyde diethyl acetal, (c) AldeRed 659 aldehyde diethyl acetal. All the compounds were dissolved in 100% ethanol and both excitation and emission profiles were measured in 100% ethanol. The emission spectrum was measured with excitation at 493 nm for AldeRed 493 aldehyde diethyl acetal, at 560 nm for AldeRed 588, and at 650 nm for AldeRed 659-A. Blue line: excitation spectrum; red line: emission spectrum;
Reagents and Analyses. BODIPY® 576/589 succinimidyl ester and BODIPY® 650/665 succinimidyl ester were purchased from Life Technologies Inc., (Grand Island, N.Y.). (E)-4-(4-(dimethylamino)styryl)-1-(3-isothiocyanatopropyl)pyridin-1-ium chloride 1 was synthesized analogously to the previously reported di-butyl analog. Hassner, A., et al., J Org. Chem. 49, 2546-2551 (1984). Chemicals and solvents for synthesis and high-performance liquid chromatography (HPLC) were acquired from Sigma-Aldrich (Milwaukee, Wis.) or Fisher Scientific (Pittsburgh, Pa.), and used without further purification. HPLC was performed on an Agilent Prostar System equipped with a 325 Variable wavelength detector and controlled by Galaxie Software using a Phenomenex 4.6×250 mm Luna C18, 10 micron column. AldeRed 493 aldehyde diethyl acetal (FIGS. 14a-14b) and AldeRed 493-A (FIGS. 14c-14d) were chromatographed using Method 1. AldeRed 588 aldehyde diethyl acetal (FIGS. 15a-15b), AldeRed 588-A (FIGS. 15c-15d), AldeRed 659 aldehyde diethyl acetal (FIGS. 16a-16b), AldeRed 659-A (FIGS. 16c-16d) were chromatographed using Method 2. Method 1: Solvent A: 100% water; Solvent B: 100% methanol; 0-5 min 100% A, 5-25 min linear gradient from 100% A to 100% B, 25-30 min 100% B, 30-35 min linear gradient from 100% B to 100% A, 35-38 min 100% A, 2 mL/min. Method 2: Solvent A: 100% water; Solvent B: 100% acetonitrile; 0-20 min linear gradient from 90% A/10% B to 10% A/90% B; 20-25 min 10% A/90% B, 25-30 min linear gradient from 10% A/90% B to 90% A/10% B, 2 mL/min. ^1H-NMR spectra were obtained on a Bruker Avance 400 MHz Spectrometer. High resolution mass spectra were obtained by the University of Notre Dame Mass Spectrometry & Proteomics Facility (Notre Dame, Ind.) using ESI either by direct infusion on a Bruker micrOTOF-II or by LC elution via an ultra-high pressure Dionex® RSLC with C18 column coupled with a Bruker micrOTOF-Q II. The excitation and emission profiles of synthesized products were measured using a spectrofluorophotometer (Shimadzu, RF-5301pc, Columbia, Md.).
Three representative substrates of ALDH containing fluorophores that emit in the red region of the spectrum were synthesized (FIG. 1). […]

Row | Maximum emission wavelength | Maximum excitation wavelength | Structure (SMILES)
1 | 590 nm | 493 nm | CCOC(CNC(=S)NCCC[n+]1ccc(C=Cc2ccc(N(C)C)cc2)cc1)OCC.[Cl-] [compound 4]
2 | 599 nm | 588 nm | CCOC(CNC(=O)CCc1ccc2n1[B-](F)(F)[N+]1=C(c3ccc[nH]3)C=CC1=C2)OCC [compound 5]
